{
  "source": "PubChem BioAssay AID1963841",
  "about": "(Molecular Pharmacology Branch, DTP, NCI, 2024)",
  "system": "439559-082-T-J2-PDC spheroid viability",
  "assay": "Anticancer human tumor 439559-082-T-J2-PDC patient-derived colon adenocarcinoma cell line growth inhibition [POLQ]",
  "conditions": "spheroids with HUVEC and MSC; for pIC50: curve of first compound; for viability, T/C: stronger effect = lower value",
  "in_short": "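Growth inhibition in 3D: complex spheroids (tumor PDC, HUVEC, MSC) treated with POLQ inhibitor combinations; where Cmax unknown, highest tested concentration 10 microM, except SN-38 at 1 microM.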",
  "key": {"[1]": {"conditions": "second compound 0.0316 µM, first compound 0.0316 µM"}, "[2]": {"conditions": "second compound 0.0316 µM, first compound 0.1 µM"}, "[3]": {"conditions": "second compound 0.0316 µM, first compound 0.316 µM"}, "[4]": {"conditions": "second compound 0.0316 µM, first compound 1 µM"}, "[5]": {"conditions": "second compound 0.0316 µM, first compound 3.16 µM"}, "[6]": {"conditions": "second compound 0.0316 µM, first compound 10 µM"}, "[7]": {"conditions": "second compound 0.1 µM, first compound 0.0316 µM"}, "[8]": {"conditions": "second compound 0.1 µM, first compound 0.1 µM"}, "[9]": {"conditions": "second compound 0.1 µM, first compound 0.316 µM"}, "[10]": {"conditions": "second compound 0.1 µM, first compound 1 µM"}, "[11]": {"conditions": "second compound 0.1 µM, first compound 3.16 µM"}, "[12]": {"conditions": "second compound 0.1 µM, first compound 10 µM"}, "[13]": {"conditions": "second compound 0.316 µM, first compound 0.0316 µM"}, "[14]": {"conditions": "second compound 0.316 µM, first compound 0.1 µM"}, "[15]": {"conditions": "second compound 0.316 µM, first compound 0.316 µM"}, "[16]": {"conditions": "second compound 0.316 µM, first compound 1 µM"}, "[17]": {"conditions": "second compound 0.316 µM, first compound 3.16 µM"}, "[18]": {"conditions": "second compound 0.316 µM, first compound 10 µM"}, "[19]": {"conditions": "second compound 1 µM, first compound 0.0316 µM"}, "[20]": {"conditions": "second compound 1 µM, first compound 0.1 µM"}, "[21]": {"conditions": "second compound 1 µM, first compound 0.316 µM"}, "[22]": {"conditions": "second compound 1 µM, first compound 1 µM"}, "[23]": {"conditions": "second compound 1 µM, first compound 3.16 µM"}, "[24]": {"conditions": "second compound 1 µM, first compound 10 µM"}, "[25]": {"conditions": "second compound 3.16 µM, first compound 0.0316 µM"}, "[26]": {"conditions": "second compound 3.16 µM, first compound 0.1 µM"}, "[27]": {"conditions": "second compound 3.16 µM, first compound 0.316 µM"}, "[28]": {"conditions": "second compound 3.16 µM, first compound 1 µM"}, "[29]": {"conditions": "second compound 3.16 µM, first compound 3.16 µM"}, "[30]": {"conditions": "second compound 3.16 µM, first compound 10 µM"}, "[31]": {"conditions": "second compound 10 µM, first compound 0.0316 µM"}, "[32]": {"conditions": "second compound 10 µM, first compound 0.1 µM"}, "[33]": {"conditions": "second compound 10 µM, first compound 0.316 µM"}, "[34]": {"conditions": "second compound 10 µM, first compound 1 µM"}, "[35]": {"conditions": "second compound 10 µM, first compound 3.16 µM"}, "[36]": {"conditions": "second compound 10 µM, first compound 10 µM"}},
  "note": "pIC50: −log10 of the molar value.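 Also: spheroids exposed to compounds for seven days before readout.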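 For viability, T/C in this document: 100% = DMSO vehicle control viability.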",
  "data": [
    {"smiles": "COc1cc(C2c3cc4c(cc3C(OC3OC5COC(C)OC5C(O)C3O)C3COC(=O)C23)OCO4)cc(OC)c1O", "note": "(centres undefined) + COC1C(OC(N)=O)C(O)C(Oc2ccc3c(O)c(NC(=O)c4ccc(O)c(CC=C(C)C)c4)c(=O)oc3c2C)OC1(C)C", "values": [
      {"measurement": "pIC50", "setting": "second compound 0.0316 µM", "result": "< 5.00"},
      {"measurement": "pIC50", "setting": "second compound 0.1 µM", "result": "< 5.00"},
      {"measurement": "pIC50", "setting": "second compound 0.316 µM", "result": "< 5.00"},
      {"measurement": "pIC50", "setting": "second compound 1 µM", "result": "< 5.00"},
      {"measurement": "pIC50", "setting": "second compound 3.16 µM", "result": "< 5.00"},
      {"measurement": "pIC50", "setting": "second compound 10 µM", "result": "< 5.00"},
      {"measurement": "viability, T/C", "setting": "[1]", "result": 94.7, "unit": "%"},
      {"measurement": "viability, T/C", "setting": "[2]", "result": 97.2, "unit": "%"},
      {"measurement": "viability, T/C", "setting": "[3]", "result": 102, "unit": "%"},
      {"measurement": "viability, T/C", "setting": "[4]", "result": 98, "unit": "%"},
      {"measurement": "viability, T/C", "setting": "[5]", "result": 90, "unit": "%"},
      {"measurement": "viability, T/C", "setting": "[6]", "result": 76.8, "unit": "%"},
      {"measurement": "viability, T/C", "setting": "[7]", "result": 108, "unit": "%"},
      {"measurement": "viability, T/C", "setting": "[8]", "result": 108, "unit": "%"},
      {"measurement": "viability, T/C", "setting": "[9]", "result": 102, "unit": "%"},
      {"measurement": "viability, T/C", "setting": "[10]", "result": 90.7, "unit": "%"},
      {"measurement": "viability, T/C", "setting": "[11]", "result": 92.7, "unit": "%"},
      {"measurement": "viability, T/C", "setting": "[12]", "result": 72.9, "unit": "%"},
      {"measurement": "viability, T/C", "setting": "[13]", "result": 102, "unit": "%"},
      {"measurement": "viability, T/C", "setting": "[14]", "result": 105, "unit": "%"},
      {"measurement": "viability, T/C", "setting": "[15]", "result": 91, "unit": "%"},
      {"measurement": "viability, T/C", "setting": "[16]", "result": 98.6, "unit": "%"},
      {"measurement": "viability, T/C", "setting": "[17]", "result": 89.5, "unit": "%"},
      {"measurement": "viability, T/C", "setting": "[18]", "result": 69.8, "unit": "%"},
      {"measurement": "viability, T/C", "setting": "[19]", "result": 102, "unit": "%"},
      {"measurement": "viability, T/C", "setting": "[20]", "result": 94.7, "unit": "%"},
      {"measurement": "viability, T/C", "setting": "[21]", "result": 98.6, "unit": "%"},
      {"measurement": "viability, T/C", "setting": "[22]", "result": 100, "unit": "%"},
      {"measurement": "viability, T/C", "setting": "[23]", "result": 87.1, "unit": "%"},
      {"measurement": "viability, T/C", "setting": "[24]", "result": 71.5, "unit": "%"},
      {"measurement": "viability, T/C", "setting": "[25]", "result": 101, "unit": "%"},
      {"measurement": "viability, T/C", "setting": "[26]", "result": 101, "unit": "%"},
      {"measurement": "viability, T/C", "setting": "[27]", "result": 99.1, "unit": "%"},
      {"measurement": "viability, T/C", "setting": "[28]", "result": 94.5, "unit": "%"},
      {"measurement": "viability, T/C", "setting": "[29]", "result": 91.4, "unit": "%"},
      {"measurement": "viability, T/C", "setting": "[30]", "result": 73.1, "unit": "%"},
      {"measurement": "viability, T/C", "setting": "[31]", "result": 100, "unit": "%"},
      {"measurement": "viability, T/C", "setting": "[32]", "result": 103, "unit": "%"},
      {"measurement": "viability, T/C", "setting": "[33]", "result": 100, "unit": "%"},
      {"measurement": "viability, T/C", "setting": "[34]", "result": 92.4, "unit": "%"},
      {"measurement": "viability, T/C", "setting": "[35]", "result": 86.8, "unit": "%"},
      {"measurement": "viability, T/C", "setting": "[36]", "result": 71.7, "unit": "%"}
    ]},
    {"smiles": "O=c1[nH]cc(F)c(=O)[nH]1", "note": "+ COC1C(OC(N)=O)C(O)C(Oc2ccc3c(O)c(NC(=O)c4ccc(O)c(CC=C(C)C)c4)c(=O)oc3c2C)OC1(C)C", "values": [
      {"measurement": "pIC50", "setting": "second compound 0.0316 µM", "result": "< 5.00"},
      {"measurement": "pIC50", "setting": "second compound 0.1 µM", "result": "< 5.00"},
      {"measurement": "pIC50", "setting": "second compound 0.316 µM", "result": "< 5.00"},
      {"measurement": "pIC50", "setting": "second compound 1 µM", "result": "< 5.00"},
      {"measurement": "pIC50", "setting": "second compound 3.16 µM", "result": "< 5.00"},
      {"measurement": "pIC50", "setting": "second compound 10 µM", "result": "< 5.00"},
      {"measurement": "viability, T/C", "setting": "[1]", "result": 92.1, "unit": "%"},
      {"measurement": "viability, T/C", "setting": "[2]", "result": 94.8, "unit": "%"},
      {"measurement": "viability, T/C", "setting": "[3]", "result": 80.5, "unit": "%"},
      {"measurement": "viability, T/C", "setting": "[4]", "result": 74.8, "unit": "%"},
      {"measurement": "viability, T/C", "setting": "[5]", "result": 72.9, "unit": "%"},
      {"measurement": "viability, T/C", "setting": "[6]", "result": 70.1, "unit": "%"},
      {"measurement": "viability, T/C", "setting": "[7]", "result": 103, "unit": "%"},
      {"measurement": "viability, T/C", "setting": "[8]", "result": 99.7, "unit": "%"},
      {"measurement": "viability, T/C", "setting": "[9]", "result": 85.9, "unit": "%"},
      {"measurement": "viability, T/C", "setting": "[10]", "result": 72.3, "unit": "%"},
      {"measurement": "viability, T/C", "setting": "[11]", "result": 69.8, "unit": "%"},
      {"measurement": "viability, T/C", "setting": "[12]", "result": 70.1, "unit": "%"},
      {"measurement": "viability, T/C", "setting": "[13]", "result": 108, "unit": "%"},
      {"measurement": "viability, T/C", "setting": "[14]", "result": 97.5, "unit": "%"},
      {"measurement": "viability, T/C", "setting": "[15]", "result": 83.4, "unit": "%"},
      {"measurement": "viability, T/C", "setting": "[16]", "result": 74.1, "unit": "%"},
      {"measurement": "viability, T/C", "setting": "[17]", "result": 72.8, "unit": "%"},
      {"measurement": "viability, T/C", "setting": "[18]", "result": 66.8, "unit": "%"},
      {"measurement": "viability, T/C", "setting": "[19]", "result": 103, "unit": "%"},
      {"measurement": "viability, T/C", "setting": "[20]", "result": 96.7, "unit": "%"},
      {"measurement": "viability, T/C", "setting": "[21]", "result": 79.9, "unit": "%"},
      {"measurement": "viability, T/C", "setting": "[22]", "result": 75.5, "unit": "%"},
      {"measurement": "viability, T/C", "setting": "[23]", "result": 68.2, "unit": "%"},
      {"measurement": "viability, T/C", "setting": "[24]", "result": 66.9, "unit": "%"},
      {"measurement": "viability, T/C", "setting": "[25]", "result": 97.8, "unit": "%"},
      {"measurement": "viability, T/C", "setting": "[26]", "result": 98.3, "unit": "%"},
      {"measurement": "viability, T/C", "setting": "[27]", "result": 83.9, "unit": "%"},
      {"measurement": "viability, T/C", "setting": "[28]", "result": 73.2, "unit": "%"},
      {"measurement": "viability, T/C", "setting": "[29]", "result": 69.1, "unit": "%"},
      {"measurement": "viability, T/C", "setting": "[30]", "result": 61.6, "unit": "%"},
      {"measurement": "viability, T/C", "setting": "[31]", "result": 104, "unit": "%"},
      {"measurement": "viability, T/C", "setting": "[32]", "result": 88.9, "unit": "%"},
      {"measurement": "viability, T/C", "setting": "[33]", "result": 80.9, "unit": "%"},
      {"measurement": "viability, T/C", "setting": "[34]", "result": 69.7, "unit": "%"},
      {"measurement": "viability, T/C", "setting": "[35]", "result": 70.1, "unit": "%"},
      {"measurement": "viability, T/C", "setting": "[36]", "result": 64.3, "unit": "%"}
    ]}
  ]
}
